The results in this text go back to patent US4587342A, “2,4-diamino-(substituted-benzopyran(quinolyl,isoquinoly)methyl)pyrimidine s useful as antibacterials” (priority 1980, dated 1986).

Values after ≈ are worked out from the molar mass of the structure shown.

For orientation: MIC means the lowest concentration that inhibits growth of the organism. A higher MIC goes with weaker potency.

The subject of this test is Staph. aureus. The experiment in a line: MIC vs Staph. aureus (Table 2). In kind it is cell-based. The following applies: Staphylococcus aureus, strain not given. The text has this:
The compounds of the present invention were subjected to standard tests in order to determine the minimum inhibitory concentration in μg/ml needed to inhibit a range of bacterial microorganisms in-vitro.
In turn, `COc1cc(Cc2cnc(N)nc2N)c2cccnc2c1O` [Compound 23, 2,4-Diamino-5-(8-hydroxy-7-methoxy-5-quinolylmethyl)pyrimidine] returned an MIC of 5 µg/mL (≈ 16.8 µM).

For the compound `Cc1cc(Cc2cnc(N)nc2N)c2cccnc2c1.Cl.Cl` [Compound 17, 2,4-Diamino-5-(7-methyl-5-quinolylmethyl)-pyrimidine dihydrochloride], the MIC stood at 0.5 µg/mL. The compound `CCOc1cc(Cc2cnc(N)nc2N)c2cccnc2c1N` [Compound 26, 2,4-Diamino-5-(8-amino-7-ethoxy-5-quinolylmethyl)pyrimidine] yielded an MIC of 0.05 µg/mL (≈ 0.161 µM). As for `C=CCc1cc(Cc2cnc(N)nc2N)c2ccc(C)nc2c1OC` [Compound 16, 5-(7-Allyl-8-methoxy-2-methyl-5-quinolylmethyl)-2,4-diaminopyrimidine], the lowest concentration to inhibit growth (MIC) was 0.05 µg/mL (≈ 0.149 µM). The result for `Cc1cc(Cc2cnc(N)nc2N)c2ncccc2c1N` [Compound 34, 2,4-Diamino-5-(5-amino-6-methyl-8-quinolylmethyl)pyrimidine] reads 5 µg/mL (≈ 17.8 µM); that for `COc1cc(Cc2cnc(N)nc2N)c2c(c1OC)OC(C)CC2` (stereo not drawn) [Compound 22, 2,4-Diamino-5-(7,8-dimethoxy-3,4-dihydro-2-methyl-2 --H---1-benzopyran-5-ylmethyl)pyrimidine], 0.1 µg/mL (≈ 0.303 µM); that for `COc1cc(Cc2cnc(N)nc2N)c2cccnc2c1` [Compound 29, 2,4-Diamino-5-(7-methoxy-5-quinolylmethyl)pyridimine], 0.5 µg/mL (≈ 1.78 µM). For the compound `CC=Cc1cc(Cc2cnc(N)nc2N)c2cccnc2c1OC` [Compound 14, 2,4-Diamino-5-(8-methoxy-7-(1-propenyl)-5-quinolylmethyl)pyrimidine], the MIC stood at 0.05 µg/mL (≈ 0.156 µM). The compound `C=CCc1cc(Cc2cnc(N)nc2N)c2cccnc2c1OCCOC` [Compound 27, 2,4-Diamino-5-(7-allyl-8-(2-methoxyethoxy)-5-quinolylmethyl)pyrimidine] displayed an MIC of 0.1 µg/mL (≈ 0.274 µM).

As to `C=CCc1cc(Cc2cnc(N)nc2N)c2ccc(C)nc2c1O` [Compound 13, 5-(7-Allyl-8-hydroxy-2-methyl-5-quinolylmethyl)-2,4-diaminopyrimidine], inhibition of growth (MIC) required 0.1 µg/mL (≈ 0.311 µM).

Compound `C=CCc1cc(Cc2cnc(N)nc2N)c2cccnc2c1O` [Compound 11, 5-(7-Allyl-8-hydroxy-5-quinolylmethyl)-2,4-diaminopyrimidine] registered an MIC of 1 µg/mL (≈ 3.25 µM). `COc1cc(Cc2cnc(N)nc2N)c2cccnc2c1N(C)C.Cl.Cl` [Compound 15, 2,4-Diamino-5-(8-dimethylamino-7-methoxy-5-quinolylmethyl)pyrimidine dihydrochloride] yielded an MIC of 0.5 µg/mL. As for `COc1cc(Cc2cnc(N)nc2N)c2c(c1OC)OCCC2` [Compound 2, 2,4-Diamino-5-(3,4-dihydro-7,8-dimethoxy-2 --H--1-benzopyran-5-yl) pyrimidine], the MIC came out at 0.5 µg/mL (≈ 1.58 µM).

As for `COc1cc(Cc2cnc(N)nc2N)c2ncccc2c1N` [Compound 35, 2,4-Diamino-5-(5-amino-6-methoxy-8-quinolylmethyl)pyrimidine], it took 0.5 µg/mL (≈ 1.69 µM) to inhibit growth (MIC). Turning to `COc1cc(Cc2cnc(N)nc2N)c2c(c1OC)OC=CC2` [Compound 10, 2,4-Diamino-5-(7,8-dimethoxy-4 --H--1-benzopyran-5-ylmethyl)pyrimidine acetate], the MIC was 0.05 µg/mL. Under `C=CCc1cc(Cc2cnc(N)nc2N)c2c(c1OC)NCCC2` [Compound 36, 5-(7-allyl-8-methoxy-5-(1,2,3,4-tetrahydro-quinolylmethyl))-2,4-diaminopyrimidine] stands 0.05 µg/mL (≈ 0.154 µM); under `CSc1cc(Cc2cnc(N)nc2N)c2cccnc2c1N.Cl.Cl` [Compound 30, 2,4-Diamino-5-(8-amino-7-methylthio-5-quinolylmethyl)pyrimidine dihydrochloride], 0.1 µg/mL.

In turn, `COc1cc(Cc2cnc(N)nc2N)c2c(c1OC)OC(C)=CC2` [Compound 19, 2,4-Diamino-5-(7,8-dimethoxy-2-methyl-4H--1-benzopyran-5-ylmethyl)pyrimidine] gave an MIC of 0.05 µg/mL (≈ 0.152 µM).

The compound `CC(=O)O.Cc1cc(Cc2cnc(N)nc2N)c2cccnc2c1-n1cccc1` [Compound 18, 2,4-Diamino-5-(8-(1-pyrrolyl)-7-methyl-5-quinolylmethyl)pyrimidine acetate] displayed an MIC of 0.5 µg/mL. In turn, `COc1cc(Cc2cnc(N)nc2N)c2ccc(=O)oc2c1OC` [Compound 7, 2,4-Diamino-5-(7,8-dimethoxy-2-oxo-2 --H--1-benzopyran-5-ylmethyl)pyrim] registered an MIC of 0.5 µg/mL (≈ 1.52 µM).

The compound `C=CCc1cc(Cc2cnc(N)nc2N)c2cccnc2c1OC` [Compound 12, 5-(7-Allyl-8-methoxy-5-quinolylmethyl)-2,4-diaminopyrimidine] gave an MIC of 0.05 µg/mL (≈ 0.156 µM). The result for `COc1cc(Cc2cnc(N)nc2N)c2c(c1OC)OC(C)(C)C=C2` [Compound 6, 2,4-Diamino-5-(7,8-dimethoxy-2,2-dimethyl-2 --H--1-benzopyran-5-ylmethyl) pyrimidine lactate] reads 0.05 µg/mL; that for `Cl.Cl.Nc1ncc(Cc2cc(Cl)c(N)c3ncccc23)c(N)n1` [Compound 28, 2,4-Diamino-5-(8-amino-7-chloro-5-quinolylmethyl)pyrimidine dihydrochloride], 0.1 µg/mL; that for `Cc1cc(Cc2cnc(N)nc2N)c2cccnc2c1N.Cl` [Compound 5, 2,4-Diamino-5-(8-amino-7-methyl-5-quinolylmethyl)-pyrimidine hydrochloride], 0.5 µg/mL. The result for `COc1cc(Cc2cnc(N)nc2N)c2cccnc2c1OC` [Compound 24, 2,4-Diamino-5-(7,8-dimethoxy-5-quinolylmethyl)pyrimidine] reads 0.1 µg/mL (≈ 0.321 µM); that for `CCCc1cc(Cc2cnc(N)nc2N)c2cccnc2c1OC` [Compound 20, 2,4-Diamino-5-(8-methoxy-7-propyl-5-quinolylmethyl)-pyrimidine], 0.05 µg/mL (≈ 0.155 µM); that for `COc1ccc(Cc2cnc(N)nc2N)c2cccnc12` [Compound 3, 2,4-Diamino-5-(8-methoxy-5-quinolylmethyl)-pyrimidine], 0.5 µg/mL (≈ 1.78 µM).
